Assay [1] concerns the target T1, HCV polymerase (NS5B) type 1b (Hepatitis C virus genotype 1b, UniProt P26663).
T1 construct: a region encoding NS5B (J Virol 1991 March, 65(3), 1105-13, 544 amino acids after deletion of 47 amino acids on the C-terminal); 6xHis (C); made in house; host or cells: Escherichia coli
Put plainly: Assay of enzyme (HCV polymerase) inhibitory activity, type 1b enzyme. To be noted: HCV polymerase inhibitory activity IC50, 1b, type 1b enzyme. The class given is biochemical, HCV BK strain (type 1b). In short, it runs like this: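 Polymerase activity was followed as radiolabelled UTP incorporation by E. coli-expressed, His-tagged NS5B of HCV type 1b lacking its last 47 residues. Conditions: 2 μM UTP, 50 μM other NTPs, Mg2+ buffer at pH 7.5, 25 °C for 60 min. Inhibition relative to compound-free reactions gave IC50.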

Assay [2] has as its target T2, HCV polymerase (NS5B) type 1a (Hepatitis C virus genotype 1a, UniProt P26664).
T2 construct: made in house; host or cells: Escherichia coli (by the 'similar method' of the 1b enzyme)
The experiment in a line: Assay of enzyme (HCV polymerase) inhibitory activity, type 1a enzyme. The format is biochemical, HCV type 1a (cloned from the blood of patients). Conditions: HCV polymerase inhibitory activity IC50, 1a, type 1a enzyme. In short, it runs like this:
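IC50 values derive from radioactivity of newly synthesized RNA with versus without test compound. The enzyme was C-terminally truncated type 1a NS5B, 1.5 μg/ml, run 60 min at 25° C with 3H-UTP-labelled nucleotides.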

pIC50: −log10 of the molar value.

What is called pIC50 is the IC50 on a negative log10 scale, so that one unit is a factor of ten. A lower pIC50 goes with a large IC50. Regarding `O=C(NCc1ccc(OC(F)(F)F)cc1)[C@H]1CN(c2cnc3cncc(Br)c3n2)CCN1S(=O)(=O)c1ccc(OC(F)(F)F)cc1` [Example 799, (R)-4-(8-bromo-pyrido[3,4-b]pyrazin-2-yl)-1-(4-trifluoromethoxy-benzenesulfonyl)-piperazine-2-carboxylic acid 4-trifluoromethoxy-benzylamide], the negative-log IC50 (pIC50) in assay [1] and in assay [2] was above 7.00 throughout.

For `O=C(NCc1ccc(OC(F)(F)F)cc1)[C@H]1CN(c2nc3nc(Cl)nc(Cl)c3s2)CCN1S(=O)(=O)c1ccc(OC(F)(F)F)cc1` [Example 800, (R)-4-(5,7-dichloro-thiazolo[4,5-d]pyrimidin-2-yl)-1-(4-trifluoromethoxy-benzenesulfonyl)-piperazine-2-carboxylic acid 4-trifluoromethoxy-benzylamide], the pIC50 in assay [1] and in assay [2] was above 7.00 in each case.

On to `O=C(NCc1ccc(OC(F)(F)F)cc1)[C@H]1CN(c2nc3ncncc3s2)CCN1S(=O)(=O)c1ccc(OC(F)(F)F)cc1` [Example 801, (R)-4-thiazolo[4,5-d]pyrimidin-2-yl-1-(4-trifluoromethoxy-benzenesulfonyl)-piperazine-2-carboxylic acid 4-trifluoromethoxy-benzylamide], for which the pIC50 in assay [1] and in assay [2] was above 7.00 throughout.

Regarding `O=C(NCc1ccc(OC(F)(F)F)cc1)[C@H]1CN(c2nc3nc(Cl)ncc3s2)CCN1S(=O)(=O)c1ccc(OC(F)(F)F)cc1` [Example 802, (R)-4-(5-chloro-thiazolo[4,5-d]pyrimidin-2-yl)-1-(4-trifluoromethoxy-benzenesulfonyl)-piperazine-2-carboxylic acid 4-trifluoromethoxy-benzylamide], the pIC50 in assay [1] and in assay [2] was above 7.00 each time.

For the compound `O=C(NCc1ccc(OC(F)(F)F)cc1)[C@H]1CN(c2nc3c(=O)[nH][nH]c(=O)c3s2)CCN1S(=O)(=O)c1ccc(OC(F)(F)F)cc1` [Example 803, (R)-4-(4,7-dioxo-4,5,6,7-tetrahydro-thiazolo[4,5-d]pyridazin-2-yl)-1-(4-trifluoromethoxy-benzenesulfonyl)-piperazine-2-carboxylic acid 4-trifluoromethoxy-benzylamide], the pIC50 in assay [1] and in assay [2] was above 7.00 each time.

As for `O=C(NCC12CC3CC(CC(C3)C1)C2)[C@H]1CN(c2cnc3cncnc3n2)CCN1S(=O)(=O)c1ccc(OC(F)(F)F)cc1` [Example 804, (R)-4-pteridin-7-yl-1-(4-trifluoromethoxy-benzenesulfonyl)-piperazine-2-carboxylic acid (adamantan-1-ylmethyl)-amide], the pIC50 in assay [1] and in assay [2] was below 6.00 throughout.

Take `O=C(NCc1ccc(OC(F)(F)F)cc1)[C@H]1CN(c2nc3cn[nH]c(=O)c3s2)CCN1S(=O)(=O)c1ccc(OC(F)(F)F)cc1` [Example 805, (R)-4-(7-oxo-6,7-dihydrothiazolo[4,5-d]pyridazin-2-yl)-1-(4-trifluoromethoxy-benzenesulfonyl)-piperazine-2-carboxylic acid 4-trifluoromethoxy-benzylamide]: the pIC50 in assay [1] and in assay [2] was above 7.00 throughout.

For the compound `O=C(O)c1cncc2ncc(N3CCN(S(=O)(=O)c4ccc(OC(F)(F)F)cc4)[C@@H](C(=O)NCc4ccc(OC(F)(F)F)cc4)C3)nc12` [Example 806, 2-[(R)-4-(4-trifluoromethoxy-benzenesulfonyl)-3-(4-trifluoromethoxy-benzylcarbamoyl)-piperazin-1-yl]-pyrido[3,4-b]pyrazine-8-carboxylic acid], the pIC50 in assay [1] and in assay [2] was above 7.00 throughout.

Consider `NC(=O)c1cncc2ncc(N3CCN(S(=O)(=O)c4ccc(OC(F)(F)F)cc4)[C@@H](C(=O)NCc4ccc(OC(F)(F)F)cc4)C3)nc12` [Example 807, 2-[(R)-4-(4-trifluoromethoxy-benzenesulfonyl)-3-(4-trifluoromethoxy-benzylcarbamoyl)-piperazin-1-yl]-pyrido[3,4-b]pyrazine-8-carboxylic acid amide], for which the pIC50 in assay [1] and in assay [2] was above 7.00 throughout.

As to `O=C(O)CCc1cncc2ncc(N3CCN(S(=O)(=O)c4ccc(OC(F)(F)F)cc4)[C@@H](C(=O)NCc4ccc(OC(F)(F)F)cc4)C3)nc12` [Example 808, 3-{2-[(R)-4-(4-trifluoromethoxy-benzenesulfonyl)-3-(4-trifluoromethoxy-benzylcarbamoyl)-piperazin-1-yl]-pyrido[3,4-b]pyrazin-8-yl}-propionic acid], the pIC50 in assay [1] and in assay [2] was above 7.00 in each case.

As to `Cc1nc(N2CCN(S(=O)(=O)c3ccc(OC(F)(F)F)cc3)[C@@H](C(=O)NCc3ccc(OC(F)(F)F)cc3)C2)cnc1C(=O)O` [Example 809, (R)-6′-methyl-4-(4-trifluoromethoxy-benzenesulfonyl)-3-(4-trifluoromethoxy-benzylcarbamoyl)-3,4,5,6-tetrahydro-2H-[1,2′]bipyrazinyl-5′-carboxylic acid], the pIC50 in assay [1] and in assay [2] was above 7.00 throughout.

Turning to `NC(=O)CCc1cncc2ncc(N3CCN(S(=O)(=O)c4ccc(OC(F)(F)F)cc4)[C@@H](C(=O)NCc4ccc(OC(F)(F)F)cc4)C3)nc12` [Example 810, (R)-4-[8-(2-carbamoyl-ethyl)-pyrido[3,4-b]pyrazin-2-yl]-1-(4-trifluoromethoxy-benzenesulfonyl)-piperazine-2-carboxylic acid 4-trifluoromethoxy-benzylamide], the pIC50 in assay [1] and in assay [2] was above 7.00 throughout.

For the compound `O=C(NCCCc1ccccc1)[C@H]1CN(c2cnc3cncnc3n2)CCN1S(=O)(=O)c1ccc(OC(F)(F)F)cc1` [Example 811, (R)-4-pteridin-7-yl-1-(4-trifluoromethoxy-benzenesulfonyl)-piperazine-2-carboxylic acid (3-phenyl-propyl)-amide], the negative logarithm of the IC50 (pIC50) in assay [1] and in assay [2] was 6.00 to 7.00 throughout.

Take `CCCc1ccc(CNC(=O)[C@H]2CN(c3nc4cn[nH]c(=O)c4s3)CCN2S(=O)(=O)c2ccc(CC)cc2)cc1` [Example 812, (R)-1-(4-ethyl-benzenesulfonyl)-4-(7-oxo-6,7-dihydro-thiazolo[4,5-d]pyridazin-2-yl)-piperazine-2-carboxylic acid 4-propyl-benzylamide]: the pIC50 in assay [1] and in assay [2] was above 7.00 throughout.

For the compound `CCCc1ccc(CNC(=O)[C@H]2CN(c3cnc4cncc(Br)c4n3)CCN2S(=O)(=O)c2ccc(CC)cc2)cc1` [Example 813, (R)-4-(8-bromo-pyrido[3,4-b]pyrazin-2-yl)-1-(4-ethyl-benzenesulfonyl)-piperazine-2-carboxylic acid 4-propyl-benzylamide], the pIC50 in assay [1] and in assay [2] was above 7.00 in each case.

Take `CCCc1ccc(CNC(=O)[C@H]2CN(c3cnc4c(C(=O)O)cccc4n3)CCN2S(=O)(=O)c2ccc(CC)cc2)cc1` [Example 814, 2-[(R)-4-(4-ethyl-benzenesulfonyl)-3-(4-propyl-benzylcarbamoyl)-piperazin-1-yl]-quinoxaline-5-carboxylic acid]: the pIC50 in assay [1] and in assay [2] was above 7.00 throughout.

`CCCc1ccc(CNC(=O)[C@H]2CN(c3cnc4cncc(C(=O)O)c4n3)CCN2S(=O)(=O)c2ccc(CC)cc2)cc1` [Example 815, 2-[(R)-4-(4-ethyl-benzenesulfonyl)-3-(4-propyl-benzylcarbamoyl)-piperazin-1-yl]-pyrido[3,4-b]pyrazine-8-carboxylic acid]: the pIC50 in assay [1] and in assay [2] was above 7.00 throughout.

`CCCc1ccc(CNC(=O)[C@H]2CN(c3cnc4cccc(C(=O)O)c4n3)CCN2S(=O)(=O)c2ccc(CC)cc2)cc1` [Example 816, 3-[(R)-4-(4-ethyl-benzenesulfonyl)-3-(4-propyl-benzylcarbamoyl)-piperazin-1-yl]-quinoxaline-5-carboxylic acid]: the pIC50 in assay [1] and in assay [2] was above 7.00 each time.

`CCCc1ccc(CNC(=O)[C@H]2CN(c3cnc4c(C(=O)O)cccc4n3)CCN2S(=O)(=O)c2ccc(OC(F)(F)F)cc2)cc1` [Example 817, 2-[(R)-3-(4-propyl-benzylcarbamoyl)-4-(4-trifluoromethoxy-benzenesulfonyl)-piperazin-1-yl]-quinoxaline-5-carboxylic acid]: the pIC50 in assay [1] and in assay [2] was above 7.00 throughout.

For the compound `CCCc1ccc(CNC(=O)[C@H]2CN(c3nc4c(C(=O)O)cccc4s3)CCN2S(=O)(=O)c2ccc(CC)cc2)cc1` [Example 818, 2-[(R)-4-(4-ethyl-benzenesulfonyl)-3-(4-propyl-benzylcarbamoyl)-piperazin-1-yl]-benzothiazole-4-carboxylic acid], the pIC50 in assay [1] and in assay [2] was above 7.00 each time.

With `CCCc1ccc(CNC(=O)[C@H]2CN(c3nc4cn[nH]c(=O)c4s3)CCN2S(=O)(=O)c2ccc(OC(F)(F)F)cc2)cc1` [Example 819, (R)-4-(7-oxo-6,7-dihydro-thiazolo[4,5-d]pyridazin-2-yl)-1-(4-trifluoromethoxy-benzenesulfonyl)-piperazine-2-carboxylic acid 4-propyl-benzylamide], the pIC50 in assay [1] and in assay [2] was above 7.00 each time.

The record behind these values is patent US8017612B2, “Piperazine compound and use thereof as a HCV polymerase inhibitor” (priority 2006, dated 2011).
